Square brackets hold non-standard residues; d marks the D form. Peptide text beside a SMILES is read from it. dCha = N[C@H](CC1CCCCC1)C(=O)O; dNle = CCCC[C@@H](N)C(=O)O
Target: T1, κ receptor (Cavia porcellus, UniProt P41144)
T1 construct: tissue homogenates prepared from guinea pig brains (cortex and cerebellum); tissue Harlan Bioproducts for Science (Indianapolis, Ind.); host or cells: guinea pig brain, cortex and cerebellum, crude membrane homogenate
Experiment: Radioreceptor assay selective for the kappa receptor (inhibition of [3H]-U69,593 binding)
Parameters: species or system guinea pig
Protocol: Guinea pig brains, frozen in liquid nitrogen, were obtained from Harlan Bioproducts for Science (Indianapolis, Ind.). Frozen brains were thawed, the cerebella and cortex were removed and weighed. The combined cortex and cerebella were homogenized in 40 ml Tris-HCl buffer (50 mM, pH 7.4, 4° C.) containing 100 μM phenylmethylsulfonyl fluoride (PMSF) 5 mM MgCl2 and 1 mg/ml bovine serum albumin (BSA) and centrifuged (39000×g) (Model J2-HC; Beckman Instruments, Fullerton, Calif.) for 10 min at 4° C. The pellets were resuspended in fresh Tris-HCl buffer and incubated at 37° C. for 40 min. Following incubation, the suspensions were centrifuged as above, the resulting pellets resuspended in 100 volumes of Tris buffer and the suspensions combined. Membrane suspensions were prepared and used in the same day. Protein content of the crude homogenates ranged from 0.1-0.3 mg/ml as determined using the method described by Bradford in Anal. Biochem. 72:248-254 (1976), which is incorporated herein by reference.
Binding assays were carried out in polypropylene tubes. […] Assay tubes were incubated for 2.5 hr at 25° C. The reaction was terminated by filtration through GF-B filters (Wallac, Gaithesburg, Md.). The filters were subsequently washed with 6 ml Tris-HCl buffer at 4° C. Bound radioactivity was counted on a Beta-plate Liquid Scintillation Counter (Life Technologies, Gaithersburg, Md.) and expressed in counts per minute (cpm). Standard curves were prepared using 0.05-6300 nM naloxone (Sigma, St. Louis, Mo.). Competitive inhibition assays were performed as above using serial dilutions of the peptide mixtures. IC50 values were then calculated using the software […] (ISI, San Diego, Calif.).

T1 sequence (P41144 whole entry): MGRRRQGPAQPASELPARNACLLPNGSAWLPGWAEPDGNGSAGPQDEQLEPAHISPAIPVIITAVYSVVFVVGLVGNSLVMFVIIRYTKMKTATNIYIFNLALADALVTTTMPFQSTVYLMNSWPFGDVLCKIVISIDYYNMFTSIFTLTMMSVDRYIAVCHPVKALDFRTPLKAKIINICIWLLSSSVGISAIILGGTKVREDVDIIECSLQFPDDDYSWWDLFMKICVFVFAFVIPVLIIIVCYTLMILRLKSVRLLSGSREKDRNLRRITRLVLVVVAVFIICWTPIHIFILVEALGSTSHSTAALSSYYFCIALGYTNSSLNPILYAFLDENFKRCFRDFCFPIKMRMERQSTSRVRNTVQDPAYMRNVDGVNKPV

`CCCC[C@@H](NC(=O)[C@@H](Cc1ccccc1)NC(=O)[C@H](N)Cc1ccccc1)C(=O)N[C@H](CC1CCCCC1)C(=O)O` [SEQ ID NO. 13, (D)Phe-(D)Phe-(D)Nle-(D)ChAla] (H-[dF][dF][dNle][dCha]-OH) showed an IC50 of 3 nM.
Work on Ac-YRTRYRYRRR-NH2 [SEQ ID NO. 1] yielded an IC50 of 10 nM.
Ac-RRFRYRYRRR-NH2 [SEQ ID NO. 5] showed an IC50 of 142 nM.
Ac-YRMRYRYRRR-NH2 [SEQ ID NO. 4] gave an IC50 of 36 nM.
`N=C(N)NCCC[C@@H](NC(=O)[C@H](Cc1c[nH]c2ccccc12)NC(=O)[C@@H](Cc1ccccc1)NC(=O)[C@H](N)Cc1ccccc1)C(=O)O` [SEQ ID NO. 14, (D)Phe-(D)Phe-Trp-(D)Arg] (H-[dF][dF]W[dR]-OH) gave an IC50 of 4950 nM.
For `CCCC[C@@H](N)C(=O)N[C@H](Cc1ccccc1)C(=O)N[C@H](CCCC)C(=O)N[C@H](CCCNC(=N)N)C(=O)O` [SEQ ID NO. 23, (D)Nle-(D)Phe-(D)Nle-(D)Arg] (H-[dNle][dF][dNle][dR]-OH), the IC50 was 10 nM.
In the case of Ac-YRFRYRYRRR-NH2 [SEQ ID NO. 2], the IC50 is reported as 18 nM.
In the case of `CCCC[C@@H](N)C(=O)N[C@H](Cc1ccccc1)C(=O)N[C@@H](Cc1c[nH]c2ccccc12)C(=O)N[C@H](CC1CCCCC1)C(=O)O` [SEQ ID NO. 25, (D)Nle-(D)Phe-Trp-(D)ChAla] (H-[dNle][dF]W[dCha]-OH), the IC50 is reported as 42800 nM.
With `CC[C@@H](C)[C@@H](NC(=O)[C@@H](Cc1ccccc1)NC(=O)[C@H](N)Cc1ccccc1)C(=O)N[C@H](CCCNC(=N)N)C(=O)O` [SEQ ID NO. 16, (D)Phe-(D)Phe-(D)Ile-(D)Arg] the IC50 was 2 nM.
`CCCC[C@@H](N)C(=O)N[C@H](Cc1ccccc1)C(=O)N[C@@H](C(=O)N[C@H](CC1CCCCC1)C(=O)O)[C@H](C)CC` [SEQ ID NO. 27, (D)Nle-(D)Phe-(D)Ile-(D)ChAla] (H-[dNle][dF][dI][dCha]-OH) was tested, and the IC50 was 1450 nM.
`N[C@H](Cc1ccccc1)C(=O)N[C@H](Cc1ccccc1)C(=O)N[C@@H](Cc1c[nH]c2ccccc12)C(=O)N[C@H](CC1CCCCC1)C(=O)O` [SEQ ID NO. 15, (D)Phe-(D)Phe-Trp-(D)ChAla] (H-[dF][dF]W[dCha]-OH) gave an IC50 of 52400 nM.
Compound `CC[C@@H](C)[C@@H](NC(=O)[C@@H](Cc1ccccc1)NC(=O)[C@H](N)Cc1ccccc1)C(=O)N[C@H](CC1CCCCC1)C(=O)O` [SEQ ID NO. 17, (D)Phe-(D)Phe-(D)Ile-(D)ChAla] (H-[dF][dF][dI][dCha]-OH) has an IC50 of 169 nM.
For `CCCC[C@@H](N)C(=O)N[C@H](Cc1ccccc1)C(=O)N[C@@H](Cc1c[nH]c2ccccc12)C(=O)N[C@H](CCCNC(=N)N)C(=O)O` [SEQ ID NO. 24, (D)Nle-(D)Phe-Trp(D)Arg] (H-[dNle][dF]W[dR]-OH), the IC50 was 11000 nM.
In the case of Ac-RFFRYRYRRR-NH2 [SEQ ID NO. 3], the IC50 is reported as 22 nM.
Work on `CCCC[C@@H](N)C(=O)N[C@H](Cc1ccccc1)C(=O)N[C@@H](C(=O)N[C@H](CCCNC(=N)N)C(=O)O)[C@H](C)CC` [SEQ ID NO. 26, (D)Nle-(D)Phe-(D)Ile-(D)Arg] (H-[dNle][dF][dI][dR]-OH) yielded an IC50 of 16 nM.

Reference: patent US5610271A, “Kappa receptor selective opioid peptides” (Torrey Pines Institute for Molecular Studies, priority 1995, dated 1997)
